Results from patent publication US8236858B2, “Substituted aryl-indole compounds and their kynurenine/kynuramine-like metabolites as therapeutic agents” (Neurim Pharmaceuticals (1991) Ltd., priority 2006, dated 2012).

Tests used:
NMDA-activated currents = test: Electrophysiological characterisation of NMDA-activated currents in freshly isolated hippocampal neurones (whole-cell patch clamp); type: cell-based, Wistar rats; conditions: for % Inhibition Peak Current / % Inhibition Steady State Current: 1 μM substance, 10 μM glycine, 300 μM L-aspartate, holding potential −70 mV, mean of at least 4 cells; for blocking activity on NMDA-activated currents (in words): summary of Table 3, 1 μM
Experimental: Isolation of hippocampal neurons: Wistar rats (12-14 days) were decapitated without anesthesia and the hippocampus was removed. It was manually cut into slices (0.2-0.4 mm), in a solution containing (mM): 150 NaCl; 5 KCL; 1.25 NaH2PO4; 2 CaCl2; 2 MgCl2; 26 NaHCO3; 20 glucose. Slices were preincubated in this solution for 30 min at room temperature. The enzymatic treatment proceeded in the same solution with lower Ca^2+ concentration (0.5 mm) containing 0.4 mg/ml protease from aspergillus oryzae. The incubation in the enzyme solution proceeded at 32° C. within 10 min. Slices were kept subsequently in enzyme-free solution containing normal Ca^2±concentration and used within 6-8 h for obtaining isolated neurons. Throughout the entire procedure the solutions were continuously saturated with a 95% O2 and 5% CO2 gas mixture to maintain pH of 7.4. For cell dissociation the slice was transferred into the extracellular solution containing (mM): 150 NaCl; 5 KCl; 2 CaCl2; 10 n-2-hydroxyethylpiperazine-n′-2-ethanesulphonic acid (Hepes); pH adjusted with NaOH to 7.4. Single cells were isolated from CA and CA3 zones of hippocampal slices by vibrodissociation method. […] After isolation they were usually suitable for the recording for 1-2 h.
Salines and chemicals: The contents of the extracellular solution was as follows (in mM): 130 NaCl, 5KCl, 2CaCl2, 20 n-2-hydroxyethylpiperazine-n′-2-ethansulfonic acid (Hepes); 0.1 μm TTX, 10 μm glycine, […] 1-aspartate; pH was adjusted with NaOH to 7.4.
The contents of the intracellular solution were as follows (in mM): 110 CsF, 20 Tris-HCl (pH=7.2). L-aspartate and glycine solutions were prepared on the day of experiment.
The tested substances were dissolved in DMSO.
Current recording and data analysis: The drug-containing solutions were applied by the fast “concentration clamp” method using “jumping table” set-up. The currents were recorded with patch clamp technique in the whole-cell configuration. Recording of the currents was performed using EPC-7 L/M patch-clamp amplifier.
NMDA-activated currents: The currents were filtered at 3 kHz (three-pole active Bessel filter) digitally sampled at the rate 6000 μs per point for NMDA activated currents. NMDA-induced transmembrane currents were measured in the presence of 10 μM glycine and 300 μM L-aspartate in the control and test solutions. The currents were recorded at holding potential −70 mV.
Calculations: The inhibition of current at 1 μM of the substance was averaged at least for 4 cells. The effect of substance was measured as the mean ratio I/Io where I was the current under the action of substance and Io was the current in control conditions.

GSK3β = biological target: T1, GSK3β (Homo sapiens, UniProt P49841); test: Evaluation of GSK3β activity: inhibition of purified GSK3β, [γ-32P]ATP / GS-2 peptide filter assay; type: biochemical; conditions: for IC50: purified GSK3β expressed in Sf9 cells, 15 μM ATP, GS-2 peptide substrate, 30 min at 30° C.; for inhibiting activity on GSK3β activity (in words): summary of Table 1
T1 construct: made in house; host or cells: insect Sf9 cells
T1 sequence (P49841 whole entry, species assumed): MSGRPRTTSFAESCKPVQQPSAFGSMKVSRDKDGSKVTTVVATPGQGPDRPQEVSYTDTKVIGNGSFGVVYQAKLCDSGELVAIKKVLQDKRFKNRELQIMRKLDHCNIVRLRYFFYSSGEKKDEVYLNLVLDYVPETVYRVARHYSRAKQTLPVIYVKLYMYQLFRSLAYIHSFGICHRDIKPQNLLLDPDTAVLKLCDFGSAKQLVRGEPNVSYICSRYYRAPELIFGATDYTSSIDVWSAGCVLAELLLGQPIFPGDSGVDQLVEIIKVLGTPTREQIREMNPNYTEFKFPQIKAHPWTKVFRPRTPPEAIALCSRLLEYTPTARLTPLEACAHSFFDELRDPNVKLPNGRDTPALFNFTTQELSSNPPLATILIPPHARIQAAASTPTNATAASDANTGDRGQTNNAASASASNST
Experimental: Compounds were evaluated for inhibition against purified GSK3β. GSK3β was expressed in and purified from insect Sf9 cells. Compounds (10 μM) were assayed; following a 1/100 dilution of the enzyme in 1 mg/ml BSA, 10 mM DTT, with 5 μl of 40 μM GS-2 peptide as a substrate, in a buffer, in the presence of 15 μM [γ-^32P]ATP (3000 Ci/mmol; 1 mCi/ml) in a final volume of 30 μl. After 30-min incubation at 30° C., 25-μl aliquots of supernatant were spotted onto 2.5×3 cm pieces of Whatman P81 phosphocellulose paper, and, 20 s later, the filters were washed five times (for at least 5 min each time) in a solution of 10 ml of phosphoric acid/liter of water. The wet filters were counted in the presence of 1 ml of scintillation fluid.

MPTP-treated mice = test: Anti-Parkinsonian activity in MPTP-treated mice with a sub threshold dose of L-DOPA (motor activity counts); type: in vivo, C57 BL/6 mice; conditions: for LOCOMOTION / REARING / TOTAL ACTIVITY: MPTP-treated mice (2×40 mg/kg s.c.), compound 3 mg/kg orally + 5 mg/kg L-Dopa s.c., counts with Vehicle (no MPTP) = 100%; for reversal of the motor deficits of MPTP-treated mice (in words): 3 mg/kg, combined with a sub-threshold (inactive) dose of L-Dopa
Experimental: Animals: six month old male C57 BL/6 mice, weighing 22-25 g were used. Following arrival at the laboratory, the mice were allowed to acclimatize for two weeks in a room with controlled temperature (21±1° C.), and a constant light-dark schedule (12 hr on/12 hr off, lights on between 06.00 and 18.00 hrs). Free access to food and water was maintained throughout. They were housed in groups of 12 animals and tested only during the hours of light (08.00-15.00 hrs). All testing was performed in a normally lighted room.
Behavioural measurements and apparatus: An automated device, consisting of macrolon rodent test cages (40×25×15 cm), each placed within two series of infra-red beams (at two different heights, one low and one high, 2 and 8 cm, respectively, above the surface of the sawdust, 1 cm deep), was used to measure spontaneous and/or drug-induced motor activity of 1-methyl 4-phenyl 1,2,3,6-tetrahydropyridine (MPTP) and control mice. The following parameters were measured: LOCOMOTION was measured by the low grid of infrared beams. Counts were registered only when the mouse in the horizontal plane, ambulating around the test-cage. REARING was registered throughout the time when at least one high level beam was interrupted, i.e. the number of counts registered was proportional to the amount of time spent rearing. TOTAL ACTIVITY was measured by a sensor (a pick-up similar to a gramophone needle, mounted on a lever with a counterweight) with which the test cage was constantly in contact. The sensor registered all types of vibration received from the test cage, such as those produced both by locomotion and rearing as well as shaking, tremors, scratching and grooming.
Behavioral measurements (locomotion, rearing and total activity): Twelve days after MPTP injections (2×40 mg/kg, s.c., 24 hr interval), the mice were administered orally with the different compounds at 3 mg/kg or vehicle (0.1% Tween-80 in 1% methylcellulose) and immediately thereafter placed in the activity test chambers and their motor behaviors were monitored for 60 min. After 60 min, the mice were injected with 5 mg/kg L-Dopa (s.c) and then replaced in the test chamber and activity measurements maintained for an additional 300 min.
Table 2 presents the locomotion, rearing and total activity counts of MPTP-treated and control mice administered either tested substances or vehicle administered with a sub threshold dose of L-Dopa.

Row | IC50 (GSK3β) | inhibiting activity on GSK3β activity (in words) (GSK3β) | Structure (SMILES) | % Inhibition Peak Current (NMDA-activated currents) | % Inhibition Steady State Current (NMDA-activated currents) | LOCOMOTION (MPTP-treated mice) | REARING (MPTP-treated mice) | TOTAL ACTIVITY (MPTP-treated mice) | reversal of the motor deficits of MPTP-treated mice (in words) (MPTP-treated mice) | blocking activity on NMDA-activated currents (in words) (NMDA-activated currents)
1 | – | – | Nc1ccccc1C(=O)CCNc1ccc([N+](=O)[O-])cc1Br [2-(2-aminobenzoyl)-N-2-bromo-4-nitro-phenylethylamine] | 86.23% | 90.78% | – | – | – | – | –
2 | – | – | Nc1ccccc1C(=O)CCNc1ccc(Br)cc1[N+](=O)[O-] [2-(2-aminobenzoyl)-N-2-nitro-4-bromo-phenylethylamine] | 90.85% | 88.77% | – | – | – | – | –
3 | 29.3 µM | significant inhibiting activity | N#Cc1ccc(NCCC(=O)c2ccccc2N)c([N+](=O)[O-])c1 [2-(2-aminobenzoyl)-N-2-nitro-4-cyano-phenylethylamine] | 85.95% | 87.24% | 17% | 29% | 46% | – | –
4 | – | – | CS(=O)(=O)c1ccc(NCCC(=O)c2ccccc2N)c([N+](=O)[O-])c1 [2-(2-aminobenzoyl)-N-2-nitro-4-methylsulfonyl-phenylethylamine] | – | – | 54% | 100% | 72% | significantly reversed the motor deficits | –
5 | 18.5 µM | – | Nc1ccccc1C(=O)CCNc1ccccc1[N+](=O)[O-] [2-(2-aminobenzoyl)-N-2-nitrophenylethylamine] | – | – | 17.6% | 25% | 45% | – | –
6 | – | – | COc1ccc2[nH]cc(CCNc3ccc([N+](=O)[O-])cc3C(=O)O)c2c1 [N-(2-Carboxy-4-nitrophenyl)-5-methoxytryptamine] | 84% | 93.6% | – | – | – | – | –
7 | 14.2 µM | significant inhibiting activity | O=C(O)c1cc([N+](=O)[O-])ccc1NCCc1c[nH]c2ccccc12 [N-(2-Carboxy-4-nitrophenyl)-tryptamine] | 76.7% | 70.4% | 16% | 25% | 45% | – | significant blocking activity
8 | 14.1 µM | significant inhibiting activity | COc1ccc2[nH]cc(CCNc3ccccc3[N+](=O)[O-])c2c1 [N-(2-Nitrophenyl)-5-methoxytryptamine] | 78% | 77.3% | 44% | 90% | 73% | significantly reversed the motor deficits | significant blocking activity
9 | 9.9 µM | significant inhibiting activity | O=[N+]([O-])c1ccccc1NCCc1c[nH]c2ccccc12 [N-(2-Nitrophenyl)-tryptamine] | 90.93% | 66.83% | 53% | 100% | 90% | significantly reversed the motor deficits | significant blocking activity
10 | – | – | COc1ccc2[nH]cc(CCNc3ccc([N+](=O)[O-])cc3Br)c2c1 [N-(2-bromo-4-nitrophenyl)-5-methoxytryptamine] | 91.53% | 86.57% | – | – | – | – | –
11 | – | – | COc1ccc2[nH]cc(CCNc3ccc([N+](=O)[O-])cc3C#N)c2c1 [N-(2-cyano-4-nitrophenyl)-5-methoxytryptamine] | 96.21% | 88.21% | – | – | – | – | –
12 | 12.7 µM | significant inhibiting activity | N#Cc1cc([N+](=O)[O-])ccc1NCCc1c[nH]c2ccccc12 [N-(2-cyano-4-nitrophenyl)-tryptamine] | 83.1% | 82.44% | 52% | 98% | 73% | significantly reversed the motor deficits | significant blocking activity
13 | – | – | O=[N+]([O-])c1cc(Br)ccc1NCCc1c[nH]c2ccccc12 [N-(2-nitro-4-bromophenyl)-tryptamine] | 95.8% | 83% | – | – | – | – | significant blocking activity
14 | 16.8 µM | significant inhibiting activity | COc1ccc2[nH]cc(CCNc3ccc(C#N)c(C#N)c3)c2c1 [N-(3,4-dicyanophenyl)-5-methoxytryptamine] | 84.4% | 78.4% | 19% | 27% | 48% | – | significant blocking activity
15 | – | – | O=C(O)c1ccc(NCCc2c[nH]c3ccccc23)c([N+](=O)[O-])c1 [N-(4-Carboxy-2-nitrophenyl)-tryptamine] | 101.6% | 92.84% | – | – | – | – | –
16 | – | – | COc1ccc2[nH]cc(CCNc3ccc(Br)cc3[N+](=O)[O-])c2c1 [N-(4-bromo-2-nitrophenyl)-5-methoxytryptamine] | 104.2% | 78.18% | 16% | 24% | 46% | – | significant blocking activity
17 | – | – | COc1ccc2[nH]cc(CCNc3ccc(S(C)(=O)=O)cc3[N+](=O)[O-])c2c1 [N-(4-methylsulfonyl-2-nitrophenyl)-5-methoxytryptamine] | – | – | 41% | 74% | 70% | significantly reversed the motor deficits | –
